Assay results reported in US20250092065A1, “2-(INDAZOL-5-YL)-6-(PIPERIDIN-4-YL)-1,7-NAPHTHYRIDINE DERIVATIVES AND RELATED COMPOUNDS AS MODULATORS FOR SPLICING NUCLEIC ACIDS AND FOR THE TREATMENT OF PROLIFERATIVE DISEASES” (REMIX THERAPEUTICS INC., priority 2022, published 2025).
pIC50: −log10 of the molar value. Read-outs that look alike come from different tables or passages of the source.

Key:
Format in all cases: cell-based, human
HTT mRNA = test: RT-qPCR splicing assay, HTT mRNA canonical (CJ) and alternative (AJ) junction; settings: Homo sapiens; for AC50: HTT alternative junction mRNA, read-out: HTT AJ (increase in AJ mRNA, AC50)
How it was run: (§1)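 Splice switching quantified in compound-treated A673/K562 cells after 24 h exposure (top dose 10 uM, 3-fold steps, ≤0.25% DMSO), using CJ and AJ qPCR assays run at least in duplicate. RQ derived by 2^(−ΔΔCt), then percentage response.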

MYB mRNA = test: RT-qPCR splicing assay, MYB mRNA canonical (CJ) and alternative (AJ) junction; settings: Homo sapiens; for AC50: MYB alternative junction mRNA, read-out: MYB AJ (increase in AJ mRNA, AC50)
How it was run: as §1

SMN2 mRNA = test: RT-qPCR splicing assay, SMN2 mRNA; settings: Homo sapiens, canonical junction qPCR panel, Table 4; read-out: SMN2 IC50 (decrease in CJ mRNA levels)
How it was run: as §1

Target C = test: HiBiT protein abundance assay, Target C (K562 HiBiT knock-in); settings: HiBiT knock-in K562 cells, 24 hours, top dose 10 μM
How it was run: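 K562 HiBiT knock-in cells (10000/well) were treated 24 h at 37° C with a 10-point 3-fold dilution series (top 10 μM final, ≤0.25% DMSO). HiBiT luminescence was read after lytic LgBiT detection. Percent response used unmodified K562 and DMSO-treated knock-in controls, and IC50 came from a four-parameter fit at 50% of untreated.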

MYB = test: HiBiT protein abundance assay, MYB (K562 HiBiT knock-in); settings: HiBiT knock-in K562 cells, 24 hours, top dose 10 μM
How it was run: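 Tagged-protein levels were measured as HiBiT/LgBiT luminescence in lysed K562 knock-in cells exposed to serially diluted compound (up to 10 μM final) for 24 hours. A four-parameter logistic regression of control-normalized signal yielded the IC50.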

[1] = HTT canonical junction mRNA, RT-qPCR, read-out: HTT CJ (decrease in CJ mRNA levels, IC50)
[2] = canonical junction qPCR panel, Table 4, read-out: HTT IC50 (decrease in CJ mRNA levels)
[3] = MYB canonical junction mRNA, RT-qPCR, read-out: MYB CJ (decrease in CJ mRNA levels, IC50)
[4] = canonical junction qPCR panel, Table 4, read-out: MYB IC50 (decrease in CJ mRNA levels)

Structure (SMILES) | AC50 (HTT mRNA; RT-qPCR) [nM] | pIC50 (HTT mRNA; [1]) | pIC50 (HTT mRNA; [2]) | AC50 (MYB mRNA; RT-qPCR) [nM] | pIC50 (MYB mRNA; [3]) | pIC50 (MYB mRNA; [4]) | pIC50 (SMN2 mRNA) | pIC50 (Target C) | pIC50 (MYB)
Cc1nc2c(C)c(O)c(-c3ccc4nc(N5CC[C@@H](NC(C)C)C5)ccc4n3)cc2o1 (single isomer, unassigned) [Compound 313] | < 100 | > 7.00 | > 7.00 | < 100 | > 7.00 | > 7.00 | > 7.00 | > 7.00 | > 7.00
Cc1nc2c(C)c(O)c(-c3ccc4nc(N5CC[C@H](NC(C)C)C5)ccc4n3)cc2o1 (single isomer, unassigned) [Compound 314] | < 100 | > 7.00 | > 7.00 | < 100 | > 7.00 | > 7.00 | > 7.00 | > 7.00 | > 7.00
Cn1cc2cc(-c3ccc4nc(N5CC[C@@H](NC6CCC6)C5)ccc4n3)c(O)c(F)c2n1 (single isomer, unassigned) [Compound 316] | < 100 | > 7.00 | > 7.00 | < 100 | > 7.00 | > 7.00 | > 7.00 | > 7.00 | > 7.00
Cn1cc2cc(-c3ccc4nc(N5CC[C@H](NC6CCC6)C5)ccc4n3)c(O)c(F)c2n1 (single isomer, unassigned) [Compound 317] | < 100 | > 7.00 | > 7.00 | < 100 | > 7.00 | > 7.00 | > 7.00 | > 7.00 | > 7.00
Cc1c(O)c(-c2ccc3nc(N4CC[C@@H](NC(C)C)C4)ccc3n2)cc2cn(C)nc12 (single isomer, unassigned) [Compound 319] | < 100 | > 7.00 | > 7.00 | < 100 | > 7.00 | > 7.00 | > 7.00 | > 7.00 | > 7.00
Cc1c(O)c(-c2ccc3nc(N4CC[C@H](NCC5CC5)C4)ccc3n2)cc2cn(C)nc12 (single isomer, unassigned) [Compound 321] | < 100 | > 7.00 | > 7.00 | < 100 | > 7.00 | > 7.00 | > 7.00 | > 7.00 | > 7.00
Cc1c(O)c(-c2ccc3nc(N4CC[C@@H](NCC5CC5)C4)ccc3n2)cc2cn(C)nc12 (single isomer, unassigned) [Compound 322] | < 100 | > 7.00 | > 7.00 | < 100 | > 7.00 | > 7.00 | > 7.00 | > 7.00 | > 7.00
Cc1nc2c(F)c(O)c(-c3ccc4nc(N5CC[C@@H](NCC6CC6)C5)ccc4n3)cc2o1 (single isomer, unassigned) [Compound 323] | < 100 | > 7.00 | > 7.00 | < 100 | > 7.00 | > 7.00 | > 7.00 | > 7.00 | > 7.00
Cc1nc2c(F)c(O)c(-c3ccc4nc(N5CC[C@H](NCC6CC6)C5)ccc4n3)cc2o1 (single isomer, unassigned) [Compound 324] | < 100 | > 7.00 | > 7.00 | < 100 | > 7.00 | > 7.00 | > 7.00 | > 7.00 | > 7.00
Cc1nc2c(F)c(O)c(-c3ccc4nc(N5CC[C@@H](NC(C)C)C5)ccc4n3)cc2o1 (single isomer, unassigned) [Compound 329] | < 100 | > 7.00 | > 7.00 | < 100 | > 7.00 | > 7.00 | > 7.00 | > 7.00 | > 7.00
Cc1nc2c(F)c(O)c(-c3ccc4nc(N5CC[C@H](NC(C)C)C5)ccc4n3)cc2o1 (single isomer, unassigned) [Compound 330] | < 100 | > 7.00 | > 7.00 | < 100 | > 7.00 | > 7.00 | > 7.00 | > 7.00 | > 7.00
Cn1cc2cc(-c3ccc4nc(N5CC[C@H](N[C@H]6C[C@H](F)C6)C5)ccc4n3)c(O)c(F)c2n1 (single isomer, unassigned) [Compound 347] | < 100 | > 7.00 | > 7.00 | < 100 | > 7.00 | > 7.00 | > 7.00 | > 7.00 | > 7.00
Cc1nc2cc(O)c(-c3ccc4nc(N5CC[C@@H](N[C@H]6C[C@H](F)C6)C5)ccc4n3)cc2o1 (single isomer, unassigned) [Compound 348] | 100 to 1000 | 6.00 to 7.00 | 6.00 to 7.00 | < 100 | > 7.00 | > 7.00 | > 7.00 | 6.00 to 7.00 | > 7.00
Cn1cc2cc(-c3ccc4nc(N5CC[C@@H](N[C@H]6C[C@H](F)C6)C5)ccc4n3)c(O)c(F)c2n1 (single isomer, unassigned) [Compound 349] | < 100 | > 7.00 | > 7.00 | < 100 | > 7.00 | > 7.00 | > 7.00 | > 7.00 | > 7.00
Cc1nc2c(C)c(O)c(-c3ccc4nc(N5CC[C@H](N[C@H]6C[C@H](F)C6)C5)ccc4n3)cc2o1 (single isomer, unassigned) [Compound 351] | < 100 | > 7.00 | > 7.00 | < 100 | > 7.00 | > 7.00 | > 7.00 | > 7.00 | > 7.00
Cc1nc2c(C)c(O)c(-c3ccc4nc(N5CC[C@@H](N[C@H]6C[C@H](F)C6)C5)ccc4n3)cc2o1 (single isomer, unassigned) [Compound 352] | < 100 | > 7.00 | > 7.00 | < 100 | > 7.00 | > 7.00 | > 7.00 | > 7.00 | > 7.00
Cc1nc2c(F)c(O)c(-c3ccc4nc(N5CC[C@@H](NC6(C)CC6)C5)ccc4n3)cc2o1 (stereo in doubt) [Compound 326, 4-fluoro-2-methyl-6-{6-[(3 S)-3-[(1-methylcyclopropyl)amino]pyrrolidin-1-yl]-1,5-naphthyridin-2-yl}-1,3-benzoxazol-5-ol] | < 100 | > 7.00 | > 7.00 | < 100 | > 7.00 | > 7.00 | > 7.00 | > 7.00 | > 7.00
Cc1nc2c(F)c(O)c(-c3ccc4nc(N5CCC(NC6(C)CC6)C5)ccc4n3)cc2o1 (stereo in doubt) [Compound 327, 4-fluoro-2-methyl-6-{6-[(3R)-3-[(1-methylcyclopropyl)amino]pyrrolidin-1-yl]-1,5-naphthyridin-2-yl}-1,3-benzoxazol-5-ol] | < 100 | > 7.00 | > 7.00 | < 100 | > 7.00 | > 7.00 | > 7.00 | > 7.00 | > 7.00
Cc1nc2c(C)c(O)c(-c3ccc4nc(N5CC[C@H](NC(C)(C)C)C5)ccc4n3)cc2o1 [Compound 214] | < 100 | > 7.00 | > 7.00 | 100 to 1000 | 6.00 to 7.00 | 6.00 to 7.00 | > 7.00 | > 7.00 | > 7.00
Cc1nc2c(C)c(O)c(-c3ccc4nc(N5CC[C@H](NC6CC6)C5)ccc4n3)cc2o1 [Compound 216] | < 100 | > 7.00 | > 7.00 | < 100 | > 7.00 | > 7.00 | > 7.00 | > 7.00 | > 7.00
Cc1nc2c(C)c(O)c(-c3ccc4nc(N5CC[C@@H](NC6CC6)C5)ccc4n3)cc2o1 [Compound 217] | < 100 | > 7.00 | > 7.00 | < 100 | > 7.00 | > 7.00 | > 7.00 | > 7.00 | > 7.00
Cn1cc2cc(-c3ccc4nc(N5CCC(NC6(C)CC6)C5)ccc4n3)c(O)cc2n1 (stereo not drawn) [Compound 219] | < 100 | > 7.00 | > 7.00 | < 100 | > 7.00 | > 7.00 | > 7.00 | > 7.00 | > 7.00
